Results taken from patent US20160271139A1, “METHOD FOR NON-TOXIC TREATMENT FOR DRUG WITHDRAWAL” (DEMERX, INC., priority 2013, published 2016).

Legend:
[1] = tested on: opioid-dependent participants; test: Safety (QT interval, adverse effects) in opioid-dependent participants; assay type: in vivo, human
Protocol: The efficacy of noribogaine in humans was evaluated in opioid-dependent participants in a randomized, placebo-controlled, double-blind trial. In the first cohort, six patients were orally administered a single dose of 60 mg noribogaine, and three patients received placebo. In the second cohort, five patients were orally administered a single dose of 120 mg noribogaine, and three patients received placebo.

various animal species = test: Pre-clinical toxicity studies in various animal species (background); assay type: in vivo
[2] = opioid-dependent participants, single oral 60 mg or 120 mg

Question: Which “Mean prolongation of the QT interval” value ([1]; first cohort, 60 mg noribogaine or placebo) does the source give for `CC[C@H]1C[C@H]2C[C@H]3c4[nH]c5ccc(O)cc5c4CCN(C2)[C@@H]13` [noribogaine] here?
Answer: less than 10 ms

Question: What about the Adverse effects [1, 2] of the same compound?
Answer: No adverse effects of noribogaine were observed in any of the participants

Question: What about the Hallucinatory effects [1, 2] of the same compound?
Answer: no hallucinatory effects

Question: And the “Mean prolongation of the QT interval” value ([1]; second cohort, 120 mg noribogaine or placebo)?
Answer: less than 40 ms

Question: And the “Toxicity at high doses” value (various animal species)?
Answer: can cause convulsions and other CNS-related clinical signs, respiratory arrest and death
